Data as given in ChEMBL document CHEMBL6109095, “Impact of fixed phosphorus position on activity of triazole bisphosphonates as geranylgeranyl diphosphate synthase inhibitors” (Bioorg Med Chem, 2025).
pIC50: −log10 of the molar value. Calls of active or inactive are those of the source. The calls are words filed in the database; no cut-off is given here.

Experiments:
[1] = molecular target: T1, Geranylgeranyl pyrophosphate synthase (Homo sapiens) (UniProt O95749); assay: Inhibition of GGDPS in human RPMI-8226 cells assessed as lowest effective concentration required for increase in intracellular lambda chain level after 48 hrs by ELISA; format: cell-based
T1 sequence (whole entry): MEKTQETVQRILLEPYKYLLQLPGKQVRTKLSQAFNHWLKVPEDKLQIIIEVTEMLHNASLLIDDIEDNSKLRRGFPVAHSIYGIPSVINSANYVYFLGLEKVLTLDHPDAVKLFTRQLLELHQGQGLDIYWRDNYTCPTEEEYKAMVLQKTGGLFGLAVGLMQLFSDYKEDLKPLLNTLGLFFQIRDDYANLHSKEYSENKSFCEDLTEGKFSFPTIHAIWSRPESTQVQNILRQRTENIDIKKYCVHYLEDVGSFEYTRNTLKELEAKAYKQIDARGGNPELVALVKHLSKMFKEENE

[2] = molecular target: T1, Geranylgeranyl pyrophosphate synthase (Homo sapiens); assay: Inhibition of GGDPS in human RPMI-8226 cells assessed as lowest effective concentration required to show unmodified Rap1a band measured after 48 hrs by immunoblot analysis; format: cell-based
[3] = molecular target: T1, Geranylgeranyl pyrophosphate synthase (Homo sapiens); assay: Inhibition of GGDPS in human MG-63 cells assessed as lowest effective concentration required to show unmodified Rap1a band measured after 48 hrs by immunoblot analysis; format: cell-based
RPMI-8226 = assay: Cytotoxicity against human RPMI-8226 cells assessed as reduction in cell viability up to 10 uM measured after 48 hrs by MTT assay; format: functional, cell-based
[4] = molecular target: T1, Geranylgeranyl pyrophosphate synthase (Homo sapiens); assay: Inhibition of GGDPS in human MM1.S cells assessed as lowest effective concentration required to show unmodified Rap1a band measured after 48 hrs by immunoblot analysis; format: cell-based
[5] = molecular target: T1, Geranylgeranyl pyrophosphate synthase (Homo sapiens); assay: Inhibition of GGDPS in human 143B cells assessed as lowest effective concentration required to show unmodified Rap1a band measured after 48 hrs by immunoblot analysis; format: cell-based
[6] = molecular target: T2, Geranylgeranyl pyrophosphate synthase (Homo sapiens, UniProt O95749); assay: Inhibition of recombinant GGDPS (unknown origin) using [14C] IPP and FPP as substrate preincubated for 10 mins followed by substrate addition and measured after 30 mins by scintillation counting method
T2 sequence (O95749 whole entry): T1 sequence (whole entry)

143B = assay: Cytotoxicity against human 143B cells assessed as reduction in cell viability up to 10 uM measured after 48 hrs by MTT assay; format: functional, cell-based
[7] = molecular target: T1, Geranylgeranyl pyrophosphate synthase (Homo sapiens); assay: Inhibition of GGDPS in human SAOS-2 cells assessed as lowest effective concentration required to show unmodified Rap1a band measured after 48 hrs by immunoblot analysis; format: cell-based
[8] = Apparent permeability of the compound by PAMPA; format: ADME
[9] = molecular target: T1, Geranylgeranyl pyrophosphate synthase (Homo sapiens); assay: Inhibition of GGDPS in human MM1.S cells assessed as appearance of unmodified Rap1a band at 1 to 100 uM measured after 48 hrs by immunoblot analysis; format: cell-based; settings: dose 1-100 µM
[10] = molecular target: T1, Geranylgeranyl pyrophosphate synthase (Homo sapiens); assay: Inhibition of GGDPS in human MM1.S cells assessed as appearance of unmodified Rap1a band measured after 48 hrs by immunoblot analysis; format: cell-based
[11] = molecular target: T1, Geranylgeranyl pyrophosphate synthase (Homo sapiens); assay: Inhibition of GGDPS in human 143B cells assessed as appearance of unmodified Rap1a band at 0.1 to 1 uM measured after 48 hrs by immunoblot analysis; format: cell-based; settings: dose 0.1-1 µM
[12] = molecular target: T1, Geranylgeranyl pyrophosphate synthase (Homo sapiens); assay: Inhibition of GGDPS in human MG-63 cells assessed as appearance of unmodified Rap1a band at 0.1 to 1 uM measured after 48 hrs by immunoblot analysis; format: cell-based; settings: dose 0.1-1 µM
[13] = molecular target: T1, Geranylgeranyl pyrophosphate synthase (Homo sapiens); assay: Inhibition of GGDPS in human SAOS-2 cells assessed as appearance of unmodified Rap1a band at 0.1 to 1 uM measured after 48 hrs by immunoblot analysis; format: cell-based; settings: dose 0.1-1 µM
[14] = molecular target: T1, Geranylgeranyl pyrophosphate synthase (Homo sapiens); assay: Inhibition of GGDPS in human RPMI-8226 cells assessed as increase in intracellular lambda chain level up to 100 uM after 48 hrs by ELISA; format: cell-based
[15] = molecular target: T1, Geranylgeranyl pyrophosphate synthase (Homo sapiens); assay: Inhibition of GGDPS in human RPMI-8226 cells assessed as appearance of unmodified Rap1a band up to 100 uM measured after 48 hrs by immunoblot analysis; format: cell-based

| SMILES | LED [1] | LED [2] | LED [3] | LED [5] | pIC50 [6] | LED [7] | also measured |
| --- | --- | --- | --- | --- | --- | --- | --- |
| CC(C)=CCCC(C)=CCn1cc(C2CC2(P(=O)(O)O)P(=O)(O)O)nn1 (stereo unspecified) | 0.5 µM | 0.5 µM | – | – | – | – | – |
| CC(C)=CCC/C(C)=C/CCn1cc(C=C(P(=O)(O)O)P(=O)(O)O)nn1 | 0.25 µM | 0.25 µM | 0.25 µM | 0.25 µM | 6.40 | 0.01 µM | Activity (RPMI-8226): Active; LED [4]: 0.25 µM; Activity (143B): Active |
| CC(C)=CCCC(C)=CCCn1cc(CC(P(=O)(O)O)P(=O)(O)O)nn1 | 0.03 µM | 0.03 µM | – | – | – | – | – |
| CC(C)=CCC/C(C)=C/CCn1cc(CC(C)(P(=O)(O)O)P(=O)(O)O)nn1 | 0.02 µM | 0.02 µM | – | – | – | – | – |
| CC(C)=CCCC(C)CCCn1cc(CC(P(=O)(O)O)P(=O)(O)O)nn1 (stereo unspecified) | 10 µM | 10 µM | – | – | 4.60 | – | – |
| CC(C)=CCC/C(C)=C\CCn1cc(C2CC2(P(=O)([O-])[O-])P(=O)([O-])[O-])nn1.[Na+].[Na+].[Na+].[Na+] (stereo unspecified) | 100 µM | 100 µM | 50 µM | 50 µM | 5.54 | 50 µM | Papp [8]: 0.283 10^-6 cm/s; inhibition [9]: Not active; No Appreciable Activity Observed |
| CC(C)=CCC/C(C)=C/CCn1cc(C2CC2(P(=O)(OCOC(=O)C(C)(C)C)OCOC(=O)C(C)(C)C)P(=O)(OCOC(=O)C(C)(C)C)OCOC(=O)C(C)(C)C)nn1 (stereo unspecified) | 5 µM | 5 µM | 5 µM | 5 µM | – | 5 µM | inhibition [10]: Not active; No Evidence Of Disruption Of Geranylgeranylation Was Observed |
| CC(C)=CCC/C(C)=C\CCn1cc(C2OC2(P(=O)(O)O)P(=O)(O)O)nn1 (stereo unspecified) | 2.5 µM | 2.5 µM | – | – | 5.63 | – | inhibition [11]: Active; inhibition [12]: Active; inhibition [13]: Active |
| CC(C)=CCC/C(C)=C/CCn1cc(CC(P(=O)(O)O)P(=O)(O)O)nn1 | 0.09 µM | 0.09 µM | – | – | – | – | – |
| CC(C)=CCCC(C)CCCn1cc(C2CC2(P(=O)(O)O)P(=O)(O)O)nn1 (stereo unspecified) | – | – | – | – | < 4.00 | – | inhibition [14]: inactive; inhibition [15]: inactive |
| CC(C)=CCC/C(C)=C\CCn1cc(C=C(P(=O)(O)O)P(=O)(O)O)nn1 | 0.25 µM | 0.25 µM | 0.25 µM | 0.25 µM | 6.43 | 0.01 µM | Activity (RPMI-8226): Active; LED [4]: 0.25 µM; Activity (143B): Active |
| CC(C)=CCC/C(C)=C\CCn1cc(CC(C)(P(=O)(O)O)P(=O)(O)O)nn1 | – | 0.025 µM | – | – | – | – | – |
| CC(C)=CCCC(C)CCCn1cc(C=C(P(=O)(O)O)P(=O)(O)O)nn1 (stereo unspecified) | 50 µM | 50 µM | – | – | < 4.00 | – | – |
| CC(C)=CCCC(C)=CCn1cc(C2OC2(P(=O)(O)O)P(=O)(O)O)nn1 (stereo unspecified) | 5 µM | 5 µM | 5 µM | 5 µM | 4.96 | 0.5 µM | LED [4]: 5 µM |
| CC(C)=CCCC(C)=CCn1cc(C=C(P(=O)(O)O)P(=O)(O)O)nn1 | 0.25 µM | 0.25 µM | – | – | – | – | – |
| CC(C)=CCC/C(C)=C/CCn1cc(C2OC2(P(=O)(O)O)P(=O)(O)O)nn1 (stereo unspecified) | – | – | – | – | 6.35 | – | inhibition [14]: inactive; inhibition [11]: Active; inhibition [12]: Active; inhibition [13]: Active; inhibition [15]: inactive |
| CC(C)=CCC/C(C)=C/CCn1cc(C2CC2(P(=O)([O-])[O-])P(=O)([O-])[O-])nn1.[Na+].[Na+].[Na+].[Na+] (stereo unspecified) | 100 µM | 100 µM | 5 µM | 5 µM | 6.05 | 5 µM | Papp [8]: 0.061 10^-6 cm/s; inhibition [9]: Not active; No Appreciable Activity Observed |
| CC(C)=CCCC(C)=CCn1cc(CC(P(=O)(O)O)P(=O)(O)O)nn1 | 0.5 µM | 0.5 µM | – | – | – | – | – |
